Test results from US6358929B1, “Use of a peptide preventing the intolerance reactions of the skin, in particular in cosmetic compositions” (L'Oreal, priority 1998, dated 2002).

Assays:
female Balb/C mice [1] = assay: Contact hypersensitivity to TNCB, peptide applied topically in a water-in-oil cream; assay type: in vivo, mouse; details: peptide in water-in-oil cream applied to the area to be sensitized 2 hours before sensitization; 24 hours after triggering; positive controls 7×10^−2 mm
Description: The procedure is carried out as in a) above, but the peptide, incorporated in a cream of the water-in-oil type, is applied to the area to be sensitized 2 hours before the sensitization.
24 hours after the triggering reaction, the increase in the thickness of the ear is on average 3×10^−2 mm in the treated mice and 7×10^−2 mm in the positive controls.

female Balb/C mice [2] = assay: Contact hypersensitivity to TNCB after a second sensitization (tolerance test); assay type: in vivo, mouse; details: same mice re-sensitized with TNCB 14 days after the first experiment, no new peptide; triggering 7 days later; measured 24 hours later; positive controls 14×10^−2 mm
Description: 14 days after the end of the experiment described in a) above, the same mice are subjected to a new sensitization reaction on the shaved skin of the back, as described in a).
7 days later, the triggering test is carried out by application of TNCB to the ear, and 24 hours later, the degree of swelling of the ear is measured.
The aim of this second experiment is to distinguish between a possible a specific temporary immunosuppression and a specific immunological tolerance.

female Balb/C mice [3] = assay: Contact hypersensitivity to TNCB after sensitization, peptide injected i.v. before sensitization; assay type: in vivo, mouse; details: 1.5 μg peptide i.v. (tail vein) 2 hours before TNCB sensitization; triggering 7 days later; measured 24 hours after triggering; positive controls 9.8×10^−2 mm, negative controls 1×10^−2 mm
Description: The study is carried out on 7-to 10-week-old female Balb/C mice.
A dose of 1.5 μg of the peptide studied (in solution in PBS buffer containing 0.1% of mouse serum) is injected into a vein of the tail of the mice 2 hours before the sensitization reaction.
The sensitization reaction consists in applying, with a brush, 100 μl of a solution containing 0.15% of TNCB in an acetone-olive oil (4:1) mixture to the shaved skin of the abdomen of the mice.
The triggering reaction is carried out 7 days after the sensitization reaction. This triggering reaction consists in applying to the two sides of an ear 10 microlitres of a solution containing 0.8% of TNCB in a vehicle consisting of the acetone-olive oil mixture already mentioned above.
To the other ear, only this mixture of acetone and olive oil is applied, for comparison.
The intensity of a possible contact hypersensitivity reaction is evaluated by estimating the size of the oedema of the ear treated with TNCB, in comparison with the ear treated with the vehicle alone. For that, the thickness of the ears is measured and compared with the aid of a micrometer screw. This measurement is carried out 24 hours after the triggering reaction.
The TNCB is also applied to the ear of control mice which have not been previously sensitized (negative controls).

[4] = system: volunteer patients in whom a contact allergy to nickel was suspected; assay: Topical effect on contact hypersensitivity reaction to nickel sulphate patch; assay type: in vivo, humans; details: cream containing 100 μM peptide under occlusive dressing on the back, 2 hours before 5% nickel sulphate patch; examined 24 hours later
Description: This study was carried out on 18 to 65 year-old volunteer patients in whom a contact allergy to nickel was suspected.
On day 0, there are applied with an occlusive dressing, to areas of the skin of the back, on the one hand a cream containing 100 μM of the peptide of formula II, and on the other hand the cream alone, without peptide, used as placebo.
Two hours later, patches impregnated with petroleum jelly containing nickel sulphate at a concentration of 5% are applied to the same areas of the skin, and also to an adjacent area that has not been pretreated.
24 hours later, the patients are examined. Those who developed a contact hypersensitivity reaction over the area treated with the placebo (and also over the adjacent area which received only the application of nickel salt), and who are therefore people who were already sensitized to nickel, are 14 in number.

For Ac-D-Lys-D-Pro-D-Val-NH2 [II], the “increase in the thickness of the ear” value (female Balb/C mice [1]) was 3×10^−2 mm, the “degree of swelling of the ear (increase in the thickness of the ear)” value (female Balb/C mice [2]) was ~3.5×10^−2 mm and the “increase in the thickness of the ear” value (female Balb/C mice [3]) was “about 2.5×10^−2 mm”. For the same substance, the “people (out of 14 already sensitized to nickel) who did not develop any contact hypersensitivity reaction over the area treated with the peptide” value [4] was 7.
